3 compounds from paper PMC11052071, “Novel JAK Inhibitors to Reduce Graft-Versus-Host Disease after Allogeneic Hematopoietic Cell Transplantation in a Preclinical Mouse Model” (Molecules, 2024) can be followed below.

One assay concerns the target JAK2 (Homo sapiens, UniProt O60674). In words: Z'-LYTE enzyme activity assay (SelectScreen Kinase Profiling), JAK2.
For another assay, the system named is GvHD. In words: Preclinical mouse model of allo-HCT (GvHD). Format: in vivo, Balb/c recipient mice. As to conditions: for % of recipient and donor BM-derived APCs in spleens / % of CD80-expressing donor-derived APCs in spleens / % of Tregs in the spleens: 20 mg/kg s.c., day 6 after allo-HCT; for % of recipient and donor BM-derived APCs in spleens: vs control. The source says:
To determine the potential of WU4 and WU8 in preventing GvHD, we performed allo-HCT in which 5 × 10^6 T cell-depleted bone marrow (TCD-BM; CD45.1+) and 5 × 10^5 splenic pan T cells (CD45.2+) obtained from B6 mice were transplanted into lethally irradiated (900 cGy on day −1) Balb/c allogeneic recipient mice on day 0. […]. […] Among monocyte subsets, we only considered classical (LyG6^−CD11b^+Ly6C^high) and intermediate monocytes (LyG6^−CD11b^+Ly6C^middle) as APCs, excluding non-classical monocytes (LyG6^−CD11b^+Ly6C^low) due to their anti-inflammatory function, which downregulates antigen presentation during inflammation. […]
Figure 5 In vivo administration of WU4 and WU8 reduces GvHD by increasing % of Tregs while suppressing % of APCs and costimulatory proteins on APCs after allo-HCT. Allo-HCT was performed as follows: 5 × 10^6 TCD-BM (CD45.1+) and 5 × 10^5 splenic T cells (CD45.2+) obtained from B6 mice were transplanted on day 0 into lethally irradiated (900 cGy on day −1) Balb/c allogeneic recipient mice. TCD-BM-only group served as a no-GvHD control. […] (A,B) The mice were monitored for survival and GvHD signs. (C–F) Whole splenocytes were analyzed for % of Tregs, recipient/BM-derived APCs, and CD80-expressing APCs on day 6 after allo-HCT. LyG6^−CD11b^+Ly6C^high and LyG6^−CD11b^+Ly6C^middle served as classical and intermediate monocyte subsets. NT: neutrophils. * p < 0.05, ** p < 0.01, and *** p < 0.001. All error bars are represented as mean ± standard deviation.
Allo-HCT was performed as previously described. Briefly, BALB/c mice were used as recipients and received 9 Gy total body irradiation on day −1, then were transplanted with 5 × 10^6 T cell-depleted bone marrow (TCD-BM) cells from B6 (CD45.1+) mice along with 0.5 × 10^6 splenic T cells from B6 (CD45.2+) mice on day 0. Mouse TCD-BM and splenic T cells were prepared using an EasySep mouse CD90.2 positive selection kit II and an EasySep mouse T cell isolation kit ([…] Technologies, Cambridge, MA, USA), respectively.
GvHD clinical scores were assessed twice per week by a scoring system incorporating five clinical criteria: weight loss (diarrhea scored 1 regardless of weight change), posture (hunching), mobility, fur texture, and skin integrity, as previously described. Individual mice were scored from 0 to 2 for each criterion and were sacrificed with GvHD scores of 6 or above, following our approved animal protocol.
T cells from in vitro primary murine T cell culture, fresh peripheral blood, or whole splenocytes were analyzed according to cell surface and intracellular markers. Surface markers were directly stained with flow antibodies for 20 min at 4 °C. For intracellular staining (FOXP3 and T-bet), cells were fixed and permeabilized after surface staining using appropriate buffers (One-step intracellular nuclear protein staining protocol, eBioscience, San Diego, CA, USA) and stained with flow antibodies. The antibodies used for flow cytometric analyses for mouse cells were as follows: FOXP3, T-BET, and CD183 (eBioscience, San Diego, CA, USA); CD3, H2-Kb, H2-Kd, CD4, B220, CD11b, CD11c, Ly6C, and DEC205 (BioLegend, San Diego, CA); and CD8, CD45.2, CD80, and Ly6G (BD Pharmingen, San Jose, CA, USA). All cells were run on a ZE5 Cell Analyzer (BD Biosciences, Mountain View, CA, USA) or Attune® NxT (Thermofisher Scientific, Waltham, MA, USA) and analyzed with the FlowJo software, version 10.9.0 (FlowJo LLC., Ashland, OR, USA).

The next assay has as its target TYK2 (Homo sapiens, UniProt P29597). In words: Z'-LYTE enzyme activity assay (SelectScreen Kinase Profiling), TYK2.
Where [1] appears, read: 4 mg/kg s.c. once daily for 3 weeks from day 3, vs vehicle control.
The mark [2] stands for this setting: 20 mg/kg s.c. once daily for 3 weeks from day 3, vs vehicle control.
The mark [3] stands for this setting: dose not given, compared to WU4.

The structures appear in SMILES notation.

One may read the IC50 as the concentration needed to halve the response being measured. Higher therefore signals weaker potency in that assay.

Chain of TYK2 (P29597 whole entry): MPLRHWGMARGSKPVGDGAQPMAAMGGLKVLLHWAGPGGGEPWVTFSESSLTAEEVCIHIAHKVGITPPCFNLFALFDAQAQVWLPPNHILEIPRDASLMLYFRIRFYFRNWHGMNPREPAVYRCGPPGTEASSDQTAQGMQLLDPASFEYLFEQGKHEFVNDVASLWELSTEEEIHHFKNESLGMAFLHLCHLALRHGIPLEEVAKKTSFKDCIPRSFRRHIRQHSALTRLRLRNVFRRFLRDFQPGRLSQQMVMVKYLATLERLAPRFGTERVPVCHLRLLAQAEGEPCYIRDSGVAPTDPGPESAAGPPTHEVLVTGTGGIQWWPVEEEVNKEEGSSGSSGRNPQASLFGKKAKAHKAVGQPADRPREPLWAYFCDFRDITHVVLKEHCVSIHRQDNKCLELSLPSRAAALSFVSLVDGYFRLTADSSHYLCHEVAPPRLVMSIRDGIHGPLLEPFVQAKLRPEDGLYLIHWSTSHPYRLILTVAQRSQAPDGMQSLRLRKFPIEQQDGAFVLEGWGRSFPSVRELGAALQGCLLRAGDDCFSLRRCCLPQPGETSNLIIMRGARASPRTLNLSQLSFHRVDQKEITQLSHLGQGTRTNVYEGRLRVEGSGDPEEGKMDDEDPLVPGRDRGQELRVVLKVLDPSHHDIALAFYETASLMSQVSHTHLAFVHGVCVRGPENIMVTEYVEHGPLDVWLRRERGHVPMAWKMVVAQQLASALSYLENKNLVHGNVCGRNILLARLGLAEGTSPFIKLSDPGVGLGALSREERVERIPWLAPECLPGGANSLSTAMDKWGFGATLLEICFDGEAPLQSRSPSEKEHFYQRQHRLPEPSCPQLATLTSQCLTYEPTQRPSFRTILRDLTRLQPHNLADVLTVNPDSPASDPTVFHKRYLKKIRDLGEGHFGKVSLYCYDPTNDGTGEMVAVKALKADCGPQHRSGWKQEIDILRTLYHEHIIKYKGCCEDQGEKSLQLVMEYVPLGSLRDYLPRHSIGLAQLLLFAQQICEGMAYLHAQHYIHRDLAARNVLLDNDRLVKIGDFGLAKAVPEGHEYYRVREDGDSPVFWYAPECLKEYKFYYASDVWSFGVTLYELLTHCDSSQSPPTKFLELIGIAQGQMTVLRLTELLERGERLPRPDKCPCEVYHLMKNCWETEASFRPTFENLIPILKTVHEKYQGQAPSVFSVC
Chain of JAK2 (O60674 whole entry): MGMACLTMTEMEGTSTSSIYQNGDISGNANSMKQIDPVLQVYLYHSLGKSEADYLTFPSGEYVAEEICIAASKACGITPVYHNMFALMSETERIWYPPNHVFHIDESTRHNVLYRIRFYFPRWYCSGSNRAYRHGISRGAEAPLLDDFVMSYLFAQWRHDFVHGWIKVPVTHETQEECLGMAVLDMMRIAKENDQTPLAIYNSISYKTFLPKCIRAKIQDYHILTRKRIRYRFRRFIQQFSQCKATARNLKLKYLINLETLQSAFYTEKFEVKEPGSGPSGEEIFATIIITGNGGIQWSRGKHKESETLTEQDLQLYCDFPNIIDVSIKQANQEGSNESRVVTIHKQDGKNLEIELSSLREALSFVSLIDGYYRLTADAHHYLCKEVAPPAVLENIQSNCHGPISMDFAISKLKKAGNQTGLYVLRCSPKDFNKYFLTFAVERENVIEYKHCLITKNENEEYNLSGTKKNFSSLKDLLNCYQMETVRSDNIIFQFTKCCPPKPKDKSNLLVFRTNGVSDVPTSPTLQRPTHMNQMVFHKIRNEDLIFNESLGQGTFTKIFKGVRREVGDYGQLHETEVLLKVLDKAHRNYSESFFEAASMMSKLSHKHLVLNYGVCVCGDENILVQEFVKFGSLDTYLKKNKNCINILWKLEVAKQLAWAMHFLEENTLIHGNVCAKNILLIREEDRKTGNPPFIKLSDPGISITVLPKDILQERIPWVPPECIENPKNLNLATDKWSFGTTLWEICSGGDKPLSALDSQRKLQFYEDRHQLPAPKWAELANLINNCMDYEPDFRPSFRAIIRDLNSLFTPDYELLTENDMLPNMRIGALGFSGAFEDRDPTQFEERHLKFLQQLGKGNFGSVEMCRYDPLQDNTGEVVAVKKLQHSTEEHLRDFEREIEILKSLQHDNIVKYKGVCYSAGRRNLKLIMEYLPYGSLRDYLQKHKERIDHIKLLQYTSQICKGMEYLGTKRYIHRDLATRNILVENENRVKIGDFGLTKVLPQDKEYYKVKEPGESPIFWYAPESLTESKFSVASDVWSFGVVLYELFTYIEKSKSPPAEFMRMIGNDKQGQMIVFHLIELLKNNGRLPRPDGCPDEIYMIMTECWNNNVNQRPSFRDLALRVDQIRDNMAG

Regarding `N#CCC1(n2cc(-c3ncnc4[nH]ccc34)cn2)CCS(=O)(=O)CC1` [WU8], the IC50 on JAK2 (IC50 JAK2, ATP at 1 mM) is 14.9 nM; at JAK2 (IC50 JAK2, ATP at app. Km), 0.535 nM; at TYK2 (IC50 TYK2, ATP at 1 mM) it was 49.1 nM; against TYK2 (IC50 TYK2, ATP at app. Km), 2.84 nM. Moreover, the results for the “clinical GvHD scores” value with GvHD (setting [1]) and with GvHD (setting [2]) were “less GvHD” and “improved clinical GvHD scores”, respectively. Further, the results for the overall survival entry in the assay with GvHD (setting [1]) and in the assay with GvHD (setting [2]) were “mild trend towards improved survival” and “significantly increased overall survival”, respectively. Further, the “% of recipient and donor BM-derived APCs in spleens” value in the assay with GvHD is “reduced the % of both the residual recipient and donor BM-derived APCs”. Moreover, in the assay on GvHD (vs vehicle control), the “% of CD80-expressing donor-derived APCs in spleens” value is listed as “decreased”. In addition, the “% of Tregs in the spleens” value with GvHD (vs vehicle control) is listed as “trend towards higher frequencies of Tregs”.

In the case of `N#CCC1(n2cc(-c3ncnc4[nH]ccc34)cn2)CC2(CC(NS(=O)(=O)C(F)(F)F)C2)C1` (stereo not drawn) [WU6], the 50% inhibitory concentration (IC50) turned out to be 6.96 nM against JAK2 (IC50 JAK2, ATP at 1 mM); 0.347 nM on JAK2 (IC50 JAK2, ATP at app. Km); 6.48 nM on TYK2 (IC50 TYK2, ATP at 1 mM); 0.766 nM against TYK2 (IC50 TYK2, ATP at app. Km). Besides, the “clinical GvHD scores” value in the assay on GvHD (setting [3]) was “significantly less clinical GvHD scores”. In the assay with GvHD (setting [3]), the overall survival result is “improved overall survival”. Moreover, in the assay on GvHD (dose not given, day 27 after allo-HCT, compared to WU4), the “percentage of donor-BM-derived B and T cells in the PB” value was “increased percentage of donor-BM-derived B and T cells”.

As for `CCS(=O)(=O)NC1CC2(C1)CC(CC#N)(n1cc(-c3ncnc4[nH]ccc34)cn1)C2` (stereo not drawn) [WU4], the IC50 against JAK2 (IC50 JAK2, ATP at 1 mM) is 2.26 nM; against JAK2 (IC50 JAK2, ATP at app. Km), 0.133 nM; against TYK2 (IC50 TYK2, ATP at 1 mM), 1.09 nM; at TYK2 (IC50 TYK2, ATP at app. Km) it was 0.417 nM. Besides, the “clinical GvHD scores” value in the assay on GvHD (setting [2]) was “did not significantly improve GvHD”. Besides, the overall survival result with GvHD (setting [2]) is “failed to provide any survival benefits”. Further, the “% of recipient and donor BM-derived APCs in spleens” value in the assay on GvHD is listed as “reducing the % of donor-derived CD11b+ APCs”. In the assay with GvHD (vs vehicle control), the “% of CD80-expressing donor-derived APCs in spleens” value is “reducing the % of donor-derived CD11b+ APCs and CD80-expressing B cells”. Also, the “% of Tregs in the spleens” value with GvHD (vs vehicle control) is listed as “significantly increasing the % of Tregs”.
